Values of other authors as cited in patent US7914804B2, “Slow release pharmaceutical preparation and method of administering same” (Palmaya Pty Ltd, priority 2001, dated 2011).

| SMILES | effectiveness relative to Naloxone (thought to be) | lasting in the body relative to Naloxone (thought to be) | t1/2 (in the body) |
| --- | --- | --- | --- |
| O=C1CC[C@@]2(O)[C@H]3Cc4ccc(O)c5c4[C@@]2(CCN3CC2CC2)[C@H]1O5 [Naltrexone] | twice as effective | 8 times |  |
| C=CCN1CC[C@]23c4c5ccc(O)c4O[C@H]2C(=O)CC[C@@]3(O)[C@H]1C5 [Naloxone] |  |  | ½ |
